# Experimental data taken from PMC8286840, “Identifying SARS-CoV-2 antiviral compounds by screening for small molecule inhibitors of Nsp3 papain-like protease” (Biochemical Journal, 2021).
# Structures can show the parent of a compound that is named as a salt. Where two headings read alike, the source gives them in different places. *1 amine or outer side, *2 acyl side, *3 side chain or, on linkers, in order; H or OH if unused. Where a SMILES comes first, the peptide text is derived from it. Side-chain parts run from the residue outwards. [ ]: non-standard residue; d: D form. The star is where a group is joined. Sta = CC(C)C[C@H](N)[C@@H](O)CC(=O)O; Ethylenediamine = C(CN[*:2])N[*:1]; Hyp = O=C(O)[C@@H]1C[C@@H](O)CN1; Phg = N[C@H](C(=O)O)c1ccccc1; Isovaleryl = CC(C)CC(=O)*; CO = O=C([*:1])[*:2]; Bn = c1ccc(C*)cc1
# Key:
# [1] = target: T1, SARS-CoV-2 PLpro (nsp3 1564–1878) (Severe acute respiratory syndrome coronavirus 2, UniProt P0DTD1); experiment: biochemical; set-up: FRET-quenched peptide (Pro3) cleavage by PLpro, 10 min pre-incubation, slope over 20 min, normalised to no-compound control; details: high concentration screen, read-out: % of control remaining
# [2] = target: T1, SARS-CoV-2 PLpro (nsp3 1564–1878); experiment: biochemical; set-up: FRET-quenched peptide (Pro3) cleavage by PLpro, 10 min pre-incubation, slope over 20 min, normalised to no-compound control; details: low concentration screen, read-out: % of control remaining
smiles,measurement,setting,value
CC(C)(CO)[C@@H](O)C(=O)NCCC(=O)O [Pantothenic acid],remaining activity at 3.75 µM,[1]; Well no.=2288,92.3%
same,remaining activity at 1.25 µM,[2]; Well no.=2288,90.1%
COc1ccc(Cc2nccc3cc(OC)c(OC)cc23)cc1OC [Papaverine hydrochloride],remaining activity at 3.75 µM,[1]; Well no.=1144,98.9%
same,remaining activity at 1.25 µM,[2]; Well no.=1144,98.1%
CCc1cccc2c1c(O)c(C(=O)N(CC)c1ccccc1)c(=O)n2C [Paquinimod],remaining activity at 3.75 µM,[1]; Well no.=8373,92.5%
same,remaining activity at 1.25 µM,[2]; Well no.=8373,92.6%
C#CCN(C)Cc1ccccc1 [Pargyline hydrochloride],remaining activity at 3.75 µM,[1]; Well no.=1445,98.9%
same,remaining activity at 1.25 µM,[2]; Well no.=1445,99.1%
NC[C@@H]1O[C@H](O[C@H]2[C@@H](O)[C@H](O[C@@H]3[C@@H](O)[C@H](N)C[C@H](N)[C@H]3O[C@H]3O[C@H](CO)[C@@H](O)[C@H](O)[C@H]3N)O[C@@H]2CO)[C@H](N)[C@@H](O)[C@@H]1O [Paromomycin sulfate],remaining activity at 3.75 µM,[1]; Well no.=1211,100%
same,remaining activity at 1.25 µM,[2]; Well no.=1211,99.9%
Fc1ccc([C@@H]2CCNC[C@H]2COc2ccc3c(c2)OCO3)cc1 [Paroxetine],remaining activity at 3.75 µM,[1]; Well no.=2093,101%
same,remaining activity at 1.25 µM,[2]; Well no.=2093,103%
NCCCC[C@@H]1NC(=O)[C@@H](Cc2c[nH]c3ccccc23)NC(=O)[C@H](c2ccccc2)NC(=O)[C@@H]2C[C@@H](OC(=O)NCCN)CN2C(=O)[C@H](Cc2ccccc2)NC(=O)[C@H](Cc2ccc(OCc3ccccc3)cc2)NC1=O [Pasireotide (ditrifluoroacetate)] (cyclo([Hyp]([CO-Ethylenediamine])[Phg][dW]KY(Bn)F)),remaining activity at 3.75 µM,[1]; Well no.=7988,101%
same,remaining activity at 1.25 µM,[2]; Well no.=7988,96.1%
O=C1C=C2C(=CCOC2O)O1 (stereo not drawn) [Patulin],remaining activity at 3.75 µM,[1]; Well no.=3543,103%
same,remaining activity at 1.25 µM,[2]; Well no.=3543,105%
Cc1ccc(Nc2nccc(N(C)c3ccc4c(C)n(C)nc4c3)n2)cc1S(N)(=O)=O [Pazopanib HCl],remaining activity at 3.75 µM,[1]; Well no.=4613,107%
same,remaining activity at 1.25 µM,[2]; Well no.=4613,110%
Cc1ccc(Nc2nccc(N(C)c3ccc4c(C)n(C)nc4c3)n2)cc1S(N)(=O)=O [Pazopanib],remaining activity at 3.75 µM,[1]; Well no.=2841,103%
same,remaining activity at 1.25 µM,[2]; Well no.=2841,103%
C[C@H]1COc2c(C3(N)CC3)c(F)cc3c(=O)c(C(=O)O)cn1c23 [Pazufloxacin],remaining activity at 3.75 µM,[1]; Well no.=2095,98.2%
same,remaining activity at 1.25 µM,[2]; Well no.=2095,97.7%
OC1c2ccccc2N=C2CCCN21 (stereo not drawn) [Peganole],remaining activity at 3.75 µM,[1]; Well no.=3541,104%
same,remaining activity at 1.25 µM,[2]; Well no.=3541,95.9%
Nc1nc2[nH]cc(CCc3ccc(C(=O)N[C@@H](CCC(=O)O)C(=O)O)cc3)c2c(=O)[nH]1 [Pemetrexed (Alimta)],remaining activity at 3.75 µM,[1]; Well no.=4677,98.7%
same,remaining activity at 1.25 µM,[2]; Well no.=4677,98.1%
Nc1nc2[nH]cc(CCc3ccc(C(=O)N[C@@H](CCC(=O)O)C(=O)O)cc3)c2c(=O)[nH]1 [Pemetrexed (disodium hemipenta hydrate)],remaining activity at 3.75 µM,[1]; Well no.=7604,95.6%
same,remaining activity at 1.25 µM,[2]; Well no.=7604,95.1%
Nc1nc2[nH]cc(CCc3ccc(C(=O)N[C@@H](CCC(=O)O)C(=O)O)cc3)c2c(=O)[nH]1 [Pemetrexed (disodium)],remaining activity at 3.75 µM,[1]; Well no.=7500,93.5%
same,remaining activity at 1.25 µM,[2]; Well no.=7500,102%
Nc1nc2[nH]cc(CCc3ccc(C(=O)N[C@@H](CCC(=O)O)C(=O)O)cc3)c2c(=O)[nH]1 [Pemetrexed Disodium Hydrate],remaining activity at 3.75 µM,[1]; Well no.=8732,97.8%
same,remaining activity at 1.25 µM,[2]; Well no.=8732,96.6%
Nc1nc2[nH]cc(CCc3ccc(C(=O)N[C@@H](CCC(=O)O)C(=O)O)cc3)c2c(=O)[nH]1 [Pemetrexed],remaining activity at 3.75 µM,[1]; Well no.=8316,101%
same,remaining activity at 1.25 µM,[2]; Well no.=8316,103%
Cc1cccn2c(=O)c(-c3nnn[nH]3)cnc12 [Pemirolast (potassium)],remaining activity at 3.75 µM,[1]; Well no.=7611,96.7%
same,remaining activity at 1.25 µM,[2]; Well no.=7611,98.6%
CN1C(C)(C)CCCC1(C)C [Pempidine tartrate],remaining activity at 3.75 µM,[1]; Well no.=1052,95%
same,remaining activity at 1.25 µM,[2]; Well no.=1052,94%
Nc1nc(O)c2ncn(CCC(CO)CO)c2n1 [Penciclovir],remaining activity at 3.75 µM,[1]; Well no.=2099,98.9%
same,remaining activity at 3.75 µM,[1]; Well no.=8002,102%
same,remaining activity at 1.25 µM,[2]; Well no.=2099,97.6%
same,remaining activity at 1.25 µM,[2]; Well no.=8002,105%
CCCCCCCCCCCCCCC(=O)O [Pentadecanoic acid],remaining activity at 3.75 µM,[1]; Well no.=4588,95.6%
same,remaining activity at 3.75 µM,[1]; Well no.=7021,103%
same,remaining activity at 1.25 µM,[2]; Well no.=4588,95%
same,remaining activity at 1.25 µM,[2]; Well no.=7021,110%
N=C(N)c1ccc(OCCCCCOc2ccc(C(=N)N)cc2)cc1 [Pentamidine HCl],remaining activity at 3.75 µM,[1]; Well no.=4648,98.1%
same,remaining activity at 1.25 µM,[2]; Well no.=4648,98.3%
N=C(N)c1ccc(OCCCCCOc2ccc(C(=N)N)cc2)cc1 [Pentamidine isethionate],remaining activity at 3.75 µM,[1]; Well no.=996,101%
same,remaining activity at 1.25 µM,[2]; Well no.=996,101%
N=C(N)c1ccc(OCCCCCOc2ccc(C(=N)N)cc2)cc1 [Pentamidine],remaining activity at 3.75 µM,[1]; Well no.=1766,99.6%
same,remaining activity at 1.25 µM,[2]; Well no.=1766,97.3%
C[N+]1(CCCCC[N+]2(C)CCCC2)CCCC1 [Pentolinium di[L(+)-tartrate]],remaining activity at 3.75 µM,[1]; Well no.=810,96.3%
same,remaining activity at 1.25 µM,[2]; Well no.=810,96.7%
CC(=O)CCCCn1c(=O)c2c(ncn2C)n(C)c1=O [Pentoxifylline],remaining activity at 3.75 µM,[1]; Well no.=1046,94.8%
same,remaining activity at 3.75 µM,[1]; Well no.=2101,100%
same,remaining activity at 1.25 µM,[2]; Well no.=1046,92.7%
same,remaining activity at 1.25 µM,[2]; Well no.=2101,101%
C1CCc2nnnn2CC1 [Pentylenetetrazole],remaining activity at 3.75 µM,[1]; Well no.=1054,99.6%
same,remaining activity at 1.25 µM,[2]; Well no.=1054,97.5%
CC(C)CC(=O)N[C@H](C(=O)N[C@H](C(=O)N[C@@H](CC(C)C)[C@@H](O)CC(=O)N[C@@H](C)C(=O)N[C@@H](CC(C)C)[C@@H](O)CC(=O)O)C(C)C)C(C)C [Pepstatin A] (Isovaleryl-VV[Sta]A[Sta]-OH),remaining activity at 3.75 µM,[1]; Well no.=8764,92.8%
same,remaining activity at 1.25 µM,[2]; Well no.=8764,91.3%
CCCN1C[C@H](CSC)C[C@@H]2c3cccc4[nH]cc(c34)C[C@H]21 [Pergolide mesylate],remaining activity at 3.75 µM,[1]; Well no.=1602,97.1%
same,remaining activity at 1.25 µM,[2]; Well no.=1602,94.9%
CCCN1C[C@H](CSC)C[C@@H]2c3cccc4[nH]cc(c34)C[C@H]21 [Pergolide methanesulfonate],remaining activity at 3.75 µM,[1]; Well no.=1257,111%
same,remaining activity at 1.25 µM,[2]; Well no.=1257,112%
C1CCC(C(CC2CCCCN2)C2CCCCC2)CC1 (stereo not drawn) [Perhexiline maleate salt],remaining activity at 3.75 µM,[1]; Well no.=5958,95.4%
same,remaining activity at 1.25 µM,[2]; Well no.=5958,97.2%
C=C(C)[C@@H]1CC=C(C(=O)O)CC1 [Perillic acid],remaining activity at 3.75 µM,[1]; Well no.=3429,93.2%
same,remaining activity at 1.25 µM,[2]; Well no.=3429,93.1%
CCC[C@H](N[C@@H](C)C(=O)N1[C@H](C(=O)O)C[C@@H]2CCCC[C@@H]21)C(=O)OCC [Perindopril (erbumine)],remaining activity at 3.75 µM,[1]; Well no.=8070,102%
same,remaining activity at 1.25 µM,[2]; Well no.=8070,106%
